Key:
Type in all cases: biochemical
JAK1 = target: T1, JAK1 (Homo sapiens, UniProt P23458); test: JAK1 kinase assay (HTRF, inhibition of phosphorylation of a synthetic peptide); conditions: catalytic domain aa 850-1154, GST-tag; 7 μM ATP (Km); read-out: JAK1 kinase inhibitory activity (EC50)
T1 construct: JAK1 (aa 850-1154) and TYK2 (aa 871-1187) are expressed with an N-terminally fused GST-tag; GST (N); purchased Carna Biosciences, Inc; host or cells: baculovirus expression system
In short: (§1)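 Baculovirus-expressed human catalytic domains (GST-JAK1, GST-TYK2, His-JAK2, His-JAK3) phosphorylated 1 μM TK substrate-biotin at ATP Km (JAK1 7 μM, JAK2 4 μM, JAK3 2 μM, TYK2 13 μM) in pH 7.0 Hepes for 20-30 min at RT, 0.75% DMSO. EDTA stop, then overnight streptavidin-XL665/cryptate-antibody detection and HTRF read.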

JAK2 = target: T2, JAK2 (Homo sapiens, UniProt O60674); test: JAK2 kinase assay (HTRF, inhibition of phosphorylation of a synthetic peptide); conditions: catalytic domain, His-tag; 4 μM ATP (Km); read-out: JAK2 kinase inhibitory activity (EC50)
T2 construct: All four purified enzymes contain only the catalytic domain; His (N); purchased Carna Biosciences, Inc; host or cells: baculovirus expression system
T2 sequence (O60674 849-1124 limits assumed): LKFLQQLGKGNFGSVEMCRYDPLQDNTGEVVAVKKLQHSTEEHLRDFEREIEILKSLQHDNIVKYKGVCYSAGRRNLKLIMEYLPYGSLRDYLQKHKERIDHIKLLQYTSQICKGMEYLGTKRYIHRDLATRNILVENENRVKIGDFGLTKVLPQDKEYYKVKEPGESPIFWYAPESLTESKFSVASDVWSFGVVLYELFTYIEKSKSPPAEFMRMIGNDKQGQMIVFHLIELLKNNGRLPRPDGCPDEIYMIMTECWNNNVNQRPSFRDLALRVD
In short: as §1

JAK3 = target: T3, JAK3 (Homo sapiens, UniProt P52333); test: JAK3 kinase assay (HTRF, inhibition of phosphorylation of a synthetic peptide); conditions: catalytic domain, His-tag; 2 μM ATP (Km); read-out: JAK3 kinase inhibitory activity (EC50)
T3 construct: All four purified enzymes contain only the catalytic domain; His (N); purchased Carna Biosciences, Inc; host or cells: baculovirus expression system
T3 sequence (P52333 822-1111 limits assumed): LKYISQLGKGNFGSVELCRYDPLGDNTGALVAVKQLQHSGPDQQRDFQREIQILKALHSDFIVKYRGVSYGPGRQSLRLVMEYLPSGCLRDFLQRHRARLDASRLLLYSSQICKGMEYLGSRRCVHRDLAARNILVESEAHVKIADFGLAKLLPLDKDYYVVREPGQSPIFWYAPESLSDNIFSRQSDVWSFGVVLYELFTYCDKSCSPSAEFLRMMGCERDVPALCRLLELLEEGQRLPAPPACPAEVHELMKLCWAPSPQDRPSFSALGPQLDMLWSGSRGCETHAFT
In short: as §1

T1 sequence (P23458 850-1154): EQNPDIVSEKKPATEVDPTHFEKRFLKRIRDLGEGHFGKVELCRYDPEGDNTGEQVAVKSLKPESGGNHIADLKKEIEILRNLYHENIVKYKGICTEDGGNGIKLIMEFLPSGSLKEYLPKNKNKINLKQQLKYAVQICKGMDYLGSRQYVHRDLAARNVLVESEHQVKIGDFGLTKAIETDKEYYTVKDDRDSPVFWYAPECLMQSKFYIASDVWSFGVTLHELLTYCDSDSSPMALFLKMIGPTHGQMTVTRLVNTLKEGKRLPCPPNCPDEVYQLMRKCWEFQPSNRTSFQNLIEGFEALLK

| SMILES | EC50 (JAK1) | EC50 (JAK2) | EC50 (JAK3) |
| --- | --- | --- | --- |
| O=C(c1cc[nH]n1)N1CCCN(c2ncnc3[nH]ccc23)CC12CC2 [Example 183, 1H-pyrazol-3-yl-[5-(7H-pyrrolo[2,3-d]pyrimidin-4-yl)-5,9-diazaspiro[2.6]nonan-9-yl]methanone] | 0.1 to 1 µM | 0.1 to 1 µM | 0.1 to 1 µM |
| Cc1cc(CC(=O)N2CCN(c3ncnc4[nH]ccc34)CC3(CC3)C2)on1 [Example 184, 2-(3-methylisoxazol-5-yl)-1-[5-(7H-pyrrolo[2,3-d]pyrimidin-4-yl)-5,8-diazaspiro[2.6]nonan-8-yl]ethanone] | < 0.1 µM | < 0.1 µM | 0.1 to 1 µM |
| O=C(c1ccccc1Cl)N1CCN(c2ncnc3[nH]ccc23)CC2(CC2)C1 [Example 185, (2-chlorophenyl)-[5-(7H-pyrrolo[2,3-d]pyrimidin-4-yl)-5,8-diazaspiro[2.6]nonan-8-yl]methanone] | 0.1 to 1 µM | 0.1 to 1 µM | > 1 µM |
| O=C(c1cccc(Cl)c1)N1CCN(c2ncnc3[nH]ccc23)CC2(CC2)C1 [Example 186, (3-chlorophenyl)-[5-(7H-pyrrolo[2,3-d]pyrimidin-4-yl)-5,8-diazaspiro[2.6]nonan-8-yl]methanone] | 0.1 to 1 µM | 0.1 to 1 µM | > 1 µM |
| Cc1oncc1C(=O)N1CCCN(c2ncnc3[nH]ccc23)CC12CC2 [Example 187, (5-methylisoxazol-4-yl)-[5-(7H-pyrrolo[2,3-d]pyrimidin-4-yl)-5,9-diazaspiro[2.6]nonan-9-yl]methanone] | 0.1 to 1 µM | 0.1 to 1 µM | 0.1 to 1 µM |
| O=C(c1ccccn1)N1CCN(c2ncnc3[nH]ccc23)CC2(CC2)C1 [Example 188, 2-pyridyl-[5-(7H-pyrrolo[2,3-d]pyrimidin-4-yl)-5,8-diazaspiro[2.6]nonan-8-yl]methanone] | > 1 µM | 0.1 to 1 µM | > 1 µM |
| O=C(c1ccccn1)N1CCCN(c2ncnc3[nH]ccc23)CC12CC2 [Example 189, 2-pyridyl-[5-(7H-pyrrolo[2,3-d]pyrimidin-4-yl)-5,9-diazaspiro[2.6]nonan-9-yl]methanone] | 0.1 to 1 µM | < 0.1 µM | > 1 µM |
| O=C(c1ccnc(O)c1)N1CCN(c2ncnc3[nH]ccc23)CC2(CC2)C1 [Example 190, (2-hydroxy-4-pyridyl)-[5-(7H-pyrrolo[2,3-d]pyrimidin-4-yl)-5,8-diazaspiro[2.6]nonan-8-yl]methanone] | 0.1 to 1 µM | 0.1 to 1 µM | > 1 µM |
| Cc1ncoc1C(=O)N1CCN(c2ncnc3[nH]ccc23)CC2(CC2)C1 [Example 191, (4-methyloxazol-5-yl)-[5-(7H-pyrrolo[2,3-d]pyrimidin-4-yl)-5,8-diazaspiro[2.6]nonan-8-yl]methanone] | 0.1 to 1 µM | 0.1 to 1 µM | > 1 µM |
| Cc1ncoc1C(=O)N1CCCN(c2ncnc3[nH]ccc23)CC12CC2 [Example 192, (4-methyloxazol-5-yl)-[5-(7H-pyrrolo[2,3-d]pyrimidin-4-yl)-5,9-diazaspiro[2.6]nonan-9-yl]methanone] | 0.1 to 1 µM | 0.1 to 1 µM | 0.1 to 1 µM |
| Cc1cc(C(=O)N2CCCN(c3ncnc4[nH]ccc34)CC23CC3)n(C)n1 [Example 193, (2,5-dimethylpyrazol-3-yl)-[5-(7H-pyrrolo[2,3-d]pyrimidin-4-yl)-5,9-diazaspiro[2.6]nonan-9-yl]methanone] | 0.1 to 1 µM | < 0.1 µM | > 1 µM |
| Cc1nnc(C(=O)N2CCN(c3ncnc4[nH]ccc34)CC3(CC3)C2)o1 [Example 194, (5-methyl-1,3,4-oxadiazol-2-yl)-[5-(7H-pyrrolo[2,3-d]pyrimidin-4-yl)-5,8-diazaspiro[2.6]nonan-8-yl]methanone] | 0.1 to 1 µM | 0.1 to 1 µM | > 1 µM |

Now from value to compound:

| EC50 (JAK1) | EC50 (JAK2) | EC50 (JAK3) | SMILES |
| --- | --- | --- | --- |
| 0.1 to 1 µM | 0.1 to 1 µM | > 1 µM | O=C(c1nc[nH]n1)N1CCN(c2ncnc3[nH]ccc23)CC2(CC2)C1 [Example 195, [5-(7H-pyrrolo[2,3-d]pyrimidin-4-yl)-5,8-diazaspiro[2.6]nonan-8-yl]-(1H-1,2,4-triazol-3-yl)methanone] |
| > 1 µM | > 1 µM | > 1 µM | Cc1cnc(C(=O)N2CCN(c3ncnc4[nH]ccc34)CC3(CC3)C2)cn1 [Example 196, (5-methylpyrazin-2-yl)-[5-(7H-pyrrolo[2,3-d]pyrimidin-4-yl)-5,8-diazaspiro[2.6]nonan-8-yl]methanone] |
| 0.1 to 1 µM | 0.1 to 1 µM | > 1 µM | Cc1cnc(C(=O)N2CCCN(c3ncnc4[nH]ccc34)CC23CC3)cn1 [Example 197, (5-methylpyrazin-2-yl)-[5-(7H-pyrrolo[2,3-d]pyrimidin-4-yl)-5,9-diazaspiro[2.6]nonan-9-yl]methanone] |
| 0.1 to 1 µM | 0.1 to 1 µM | > 1 µM | Cc1cncc(C(=O)N2CCCN(c3ncnc4[nH]ccc34)CC23CC3)n1 [Example 198, (6-methylpyrazin-2-yl)-[5-(7H-pyrrolo[2,3-d]pyrimidin-4-yl)-5,9-diazaspiro[2.6]nonan-9-yl]methanone] |
| > 1 µM | > 1 µM | > 1 µM | Cc1noc(C)c1C(=O)N1CCCN(c2ncnc3[nH]ccc23)CC12CC2 [Example 199, (3,5-dimethylisoxazol-4-yl)-[5-(7H-pyrrolo[2,3-d]pyrimidin-4-yl)-5,9-diazaspiro[2.6]nonan-9-yl]methanone] |
| 0.1 to 1 µM | 0.1 to 1 µM | 0.1 to 1 µM | O=C(c1ccsn1)N1CCN(c2ncnc3[nH]ccc23)CC2(CC2)C1 [Example 200, isothiazol-3-yl-[5-(7H-pyrrolo[2,3-d]pyrimidin-4-yl)-5,8-diazaspiro[2.6]nonan-8-yl]methanone] |
| 0.1 to 1 µM | 0.1 to 1 µM | 0.1 to 1 µM | O=C(c1cnsn1)N1CCN(c2ncnc3[nH]ccc23)CC2(CC2)C1 [Example 202, [5-(7H-pyrrolo[2,3-d]pyrimidin-4-yl)-5,8-diazaspiro[2.6]nonan-8-yl]-(1,2,5-thiadiazol-3-yl)methanone] |
| 0.1 to 1 µM | 0.1 to 1 µM | 0.1 to 1 µM | O=C(c1c[nH]nn1)N1CCN(c2ncnc3[nH]ccc23)CC2(CC2)C1 [Example 204, [5-(7H-pyrrolo[2,3-d]pyrimidin-4-yl)-5,8-diazaspiro[2.6]nonan-8-yl]-(1H-triazol-4-yl)methanone] |
| 0.1 to 1 µM | 0.1 to 1 µM | 0.1 to 1 µM | O=C(c1c[nH]nn1)N1CCCN(c2ncnc3[nH]ccc23)CC12CC2 [Example 205, [5-(7H-pyrrolo[2,3-d]pyrimidin-4-yl)-5,9-diazaspiro[2.6]nonan-9-yl]-(1H-triazol-4-yl)methanone] |
| 0.1 to 1 µM | 0.1 to 1 µM | 0.1 to 1 µM | Cc1[nH]ncc1C(=O)N1CCN(c2ncnc3[nH]ccc23)CC2(CC2)C1 [Example 206, (5-methyl-1H-pyrazol-4-yl)-[5-(7H-pyrrolo[2,3-d]pyrimidin-4-yl)-5,8-diazaspiro[2.6]nonan-8-yl]methanone] |
| > 1 µM | 0.1 to 1 µM | > 1 µM | Cc1[nH]ncc1C(=O)N1CCCN(c2ncnc3[nH]ccc23)CC12CC2 [Example 207, (5-methyl-1H-pyrazol-4-yl)-[5-(7H-pyrrolo[2,3-d]pyrimidin-4-yl)-5,9-diazaspiro[2.6]nonan-9-yl]methanone] |

From patent publication US9586961B2, “Homopiperazine derivatives as protein tyrosine kinase inhibitors and pharmaceutical use thereof” (LEO PHARMA A/S, priority 2010, dated 2017)
